Data taken from US20120016010A1, “RNA Interference Mediated Inhibition of BTB and CNC Homology 1, Basic Leucine Zipper Transcription Factor 1 (BACH1) Gene Expression Using Short Interfering Nucleic Acid (siNA)” (Merck Sharp & Dohme Corp, priority 2009, published 2012).

Legend:
Bach1 mRNA = assay: Dose-response curve of Bach1 mRNA knock-down in human A549 cells; format: cell-based; settings: for Maximum % KD in DRC: Table 6, Bach1 mRNA, mean ± SD; for IC50: Table 6, mean ± SD
TLR8 = molecular target: T1, TLR8 (Homo sapiens, UniProt Q9NR97); format: cell-based
T1 construct: expressed in transfected cells
T1 sequence (Q9NR97 27-1041): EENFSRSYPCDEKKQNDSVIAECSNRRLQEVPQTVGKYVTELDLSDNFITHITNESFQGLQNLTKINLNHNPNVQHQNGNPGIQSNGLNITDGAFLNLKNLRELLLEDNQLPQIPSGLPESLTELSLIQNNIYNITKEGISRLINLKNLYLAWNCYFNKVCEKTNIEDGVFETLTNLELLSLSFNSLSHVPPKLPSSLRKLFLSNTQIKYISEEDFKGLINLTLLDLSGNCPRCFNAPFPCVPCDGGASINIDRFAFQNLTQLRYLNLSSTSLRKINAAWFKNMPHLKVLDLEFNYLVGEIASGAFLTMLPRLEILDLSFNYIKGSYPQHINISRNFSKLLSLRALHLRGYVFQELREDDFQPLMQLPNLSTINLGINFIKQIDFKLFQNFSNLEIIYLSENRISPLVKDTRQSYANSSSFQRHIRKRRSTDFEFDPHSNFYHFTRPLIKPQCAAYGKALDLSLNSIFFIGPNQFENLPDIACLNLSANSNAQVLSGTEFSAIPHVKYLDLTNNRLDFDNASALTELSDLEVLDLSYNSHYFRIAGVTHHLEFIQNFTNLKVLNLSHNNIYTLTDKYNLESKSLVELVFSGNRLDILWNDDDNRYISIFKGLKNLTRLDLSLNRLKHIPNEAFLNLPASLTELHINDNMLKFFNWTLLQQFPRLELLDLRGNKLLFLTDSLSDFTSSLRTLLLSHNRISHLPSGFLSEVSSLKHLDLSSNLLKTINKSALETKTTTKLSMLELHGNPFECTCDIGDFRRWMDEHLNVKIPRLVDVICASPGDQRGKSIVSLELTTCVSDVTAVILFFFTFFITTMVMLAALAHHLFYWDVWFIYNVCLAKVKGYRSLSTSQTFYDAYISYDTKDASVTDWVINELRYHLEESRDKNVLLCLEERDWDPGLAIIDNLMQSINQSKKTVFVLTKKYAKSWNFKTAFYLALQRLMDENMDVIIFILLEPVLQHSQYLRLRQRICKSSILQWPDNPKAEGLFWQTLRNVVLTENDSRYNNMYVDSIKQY
Protocol: Human U205-TLR7 and Human U205-TLR8 cells were grown at 37 degrees in the presence of 5% CO2 and were cultured in Dulbeco's modified Eagle's Medium (DMEM), 1% non essential amino acids, supplemented with fetal bovine serum at 10% and 100 ug/ml streptomycin and 100 u/ml penicillin. Stable expression of TLR7 and TLR8 was maintained by the addition of 300 ug/ml […].
TLR7 and TLR8 expressing U2OS osteosarcoma cells were seeded in 96-well plate format at a concentration of 2×10^4 cells/well 24 hours prior to transfection. Cells were transfected with the siNAs using DharmaFECT1 lipid transfection reagent using Resiquimod (R848) and the LyoVec-complexed, GU-rich oligonucleotide ssRNA40 respectively as controls (100 μl/well). (DharmaFECT1 was used as the delivery agent for the siNAs as it combines low immunostimulatory effects with high delivery efficiency.) The treatment media were replaced after 6 hours with antibiotic containing DMEM. Cells were harvested 24 hours following transfection. […] An agonist concentration range of 4-10 μg/ml was established since it caused optimal levels of IL8 mRNA expression for the assay.
TLR7 and TLR8 mediated immunostimulation was measured by the increase in IL8 mRNA levels when the siNAs were formulated with DharmaFect1 (Gibco BRL) and delivered to U2OS cells that were engineered to stably express TLR7 or TLR8. The cells were treated with the TLR7 and TLR8 agonists Resiquimod (R848) and ssRNA40/LyoVec respectively to act as positive controls for IL8 mRNA induction. IL8 mRNA levels were used as a biomarker of TLR7 and TLR8 mediated immunostimulation.

Row | Substance | Maximum % KD in DRC (Bach1 mRNA) | IC50 (Bach1 mRNA) | Immunostimulation TLR8 mediated in Human U2OS-TLR8 cells IL8 mRNA increase n = 4 individual expts (TLR8) | TLR8 mediated immunostimulatory activity (IL8 mRNA induction) (TLR8)
1 | 29947-DC (sense GGAAUCCUGCUUUCAGUUUTT; antisense AAACUGAAAGCAGGAUUCCUU; inverted abasic caps (B), 2'-modified nucleotides, further chemistry not given here) | 86 ± 0.5% | 27 ± 5 pM | No significant effect up to 100 nM | no TLR8 mediated immunostimulatory activity
2 | 29956-DC (sense GUCUGAGUGUCCGUGGUUATT; antisense UAACCACGGACACUCAGACUU; inverted abasic caps (B), 2'-modified nucleotides, further chemistry not given here) | 80 ± 7.7% | 28 ± 18 pM | No significant effect up to 100 nM | 
3 | 29957-DC (sense GCAGUUACUUCCACUCAAGTT; antisense CUUGAGUGGAAGUAACUGCUU; inverted abasic end caps, TT overhangs, modified nucleotides, further chemistry not given here) | 87 ± 0.9% | 39 ± 13 pM | Upregulation up to 100 nM | 
4 | 29961-DC (sense CUACACUGCUAAACUGAUUTT; antisense AAUCAGUUUAGCAGUGUAGUU; inverted abasic end caps, TT overhangs, modified nucleotides, further chemistry not given here) | 89 ± 2.2% | 10 ± 4 pM | No significant effect up to 100 nM | no TLR8 mediated immunostimulatory activity
5 | 29964-DC (sense GAUUUGCAGGUGAUGUUAATT; antisense UUAACAUCACCUGCAAAUCUU; inverted abasic end caps, TT overhangs, modified nucleotides, further chemistry not given here) | 87 ± 2.8% | 27 ± 15 pM | No significant effect up to 100 nM | no TLR8 mediated immunostimulatory activity
6 | 29984-DC (sense GUUAAAGGAUUUGAACCUUTT; antisense AAGGUUCAAAUCCUUUAACUU; inverted abasic end caps, TT overhangs, modified nucleotides, further chemistry not given here) |  |  | No significant effect up to 100 nM | no TLR8 mediated immunostimulatory activity
7 | 29988-DC (sense AUUUGAACCUUUAAUUCAGTT; antisense CUGAAUUAAAGGUUCAAAUUU; inverted abasic end caps, TT overhangs, modified nucleotides, further chemistry not given here) | 84 ± 0.9% | 63 ± 19 pM | No significant effect up to 100 nM | no TLR8 mediated immunostimulatory activity
